Test results: ChEMBL document CHEMBL3596137, “N-Substituted pyrazole-3-carboxamides as inhibitors of human 15-lipoxygenase” (Bioorg Med Chem Lett, 2015)
pIC50: −log10 of the molar value. Blank lines part the entries; values can stand above or below the compound they belong to. The source made the active and inactive calls. The rule behind the calls is not given here.

What was measured:
[1] = biological target: T1, Polyunsaturated fatty acid lipoxygenase ALOX15 (Homo sapiens, UniProt P16050); test: Inhibition of human 15-LOX-1 using arachidonic acid as substrate by cell based assay
T1 sequence (P16050 whole entry): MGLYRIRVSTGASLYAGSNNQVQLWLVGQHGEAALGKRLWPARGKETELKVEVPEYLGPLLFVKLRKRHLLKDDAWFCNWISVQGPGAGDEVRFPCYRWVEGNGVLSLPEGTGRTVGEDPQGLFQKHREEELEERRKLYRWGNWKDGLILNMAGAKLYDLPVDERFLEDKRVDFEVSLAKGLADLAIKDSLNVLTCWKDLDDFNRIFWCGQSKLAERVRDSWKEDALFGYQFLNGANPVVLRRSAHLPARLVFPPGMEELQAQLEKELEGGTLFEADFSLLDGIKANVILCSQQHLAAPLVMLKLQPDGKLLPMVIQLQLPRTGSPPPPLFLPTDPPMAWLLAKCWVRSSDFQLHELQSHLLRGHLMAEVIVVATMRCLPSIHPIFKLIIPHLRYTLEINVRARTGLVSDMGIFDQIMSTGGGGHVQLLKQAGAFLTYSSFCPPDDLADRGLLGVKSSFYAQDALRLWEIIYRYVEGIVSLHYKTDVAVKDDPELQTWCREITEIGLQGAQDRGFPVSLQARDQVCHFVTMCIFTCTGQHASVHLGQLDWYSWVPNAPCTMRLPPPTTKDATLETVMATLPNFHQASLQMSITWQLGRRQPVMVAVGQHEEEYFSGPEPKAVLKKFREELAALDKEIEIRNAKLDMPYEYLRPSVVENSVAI

[2] = biological target: T1, Polyunsaturated fatty acid lipoxygenase ALOX15; test: Inhibition of human 15-LOX-1 using arachidonic acid as substrate
[3] = biological target: T2, Polyunsaturated fatty acid 5-lipoxygenase (Homo sapiens) (UniProt P09917); test: Inhibition of 5-LOX (unknown origin) using arachidonic acid as substrate at 10 uM by cell based assay
T2 sequence (whole entry): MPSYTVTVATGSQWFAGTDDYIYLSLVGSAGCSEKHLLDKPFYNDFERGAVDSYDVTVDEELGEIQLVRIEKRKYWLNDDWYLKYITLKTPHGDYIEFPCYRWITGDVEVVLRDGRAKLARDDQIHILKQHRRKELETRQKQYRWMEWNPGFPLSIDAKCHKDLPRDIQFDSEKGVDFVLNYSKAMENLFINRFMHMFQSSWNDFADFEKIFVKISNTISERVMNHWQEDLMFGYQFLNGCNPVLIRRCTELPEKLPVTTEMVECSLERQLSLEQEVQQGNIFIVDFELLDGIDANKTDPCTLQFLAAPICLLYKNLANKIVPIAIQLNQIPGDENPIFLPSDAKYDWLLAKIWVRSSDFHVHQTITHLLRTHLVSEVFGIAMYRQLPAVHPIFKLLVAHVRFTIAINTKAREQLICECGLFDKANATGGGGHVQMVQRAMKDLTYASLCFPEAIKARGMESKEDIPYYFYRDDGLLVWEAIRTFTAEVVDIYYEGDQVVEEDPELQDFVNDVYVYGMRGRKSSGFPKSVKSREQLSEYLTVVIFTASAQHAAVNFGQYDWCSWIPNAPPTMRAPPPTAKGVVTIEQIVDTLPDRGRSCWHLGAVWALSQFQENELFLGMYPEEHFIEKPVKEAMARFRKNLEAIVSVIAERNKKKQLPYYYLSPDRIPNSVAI

[4] = biological target: T3, Polyunsaturated fatty acid lipoxygenase ALOX12 (Homo sapiens) (UniProt P18054); test: Inhibition of 12-LOX (unknown origin) using arachidonic acid as substrate at 10 uM
T3 sequence (whole entry): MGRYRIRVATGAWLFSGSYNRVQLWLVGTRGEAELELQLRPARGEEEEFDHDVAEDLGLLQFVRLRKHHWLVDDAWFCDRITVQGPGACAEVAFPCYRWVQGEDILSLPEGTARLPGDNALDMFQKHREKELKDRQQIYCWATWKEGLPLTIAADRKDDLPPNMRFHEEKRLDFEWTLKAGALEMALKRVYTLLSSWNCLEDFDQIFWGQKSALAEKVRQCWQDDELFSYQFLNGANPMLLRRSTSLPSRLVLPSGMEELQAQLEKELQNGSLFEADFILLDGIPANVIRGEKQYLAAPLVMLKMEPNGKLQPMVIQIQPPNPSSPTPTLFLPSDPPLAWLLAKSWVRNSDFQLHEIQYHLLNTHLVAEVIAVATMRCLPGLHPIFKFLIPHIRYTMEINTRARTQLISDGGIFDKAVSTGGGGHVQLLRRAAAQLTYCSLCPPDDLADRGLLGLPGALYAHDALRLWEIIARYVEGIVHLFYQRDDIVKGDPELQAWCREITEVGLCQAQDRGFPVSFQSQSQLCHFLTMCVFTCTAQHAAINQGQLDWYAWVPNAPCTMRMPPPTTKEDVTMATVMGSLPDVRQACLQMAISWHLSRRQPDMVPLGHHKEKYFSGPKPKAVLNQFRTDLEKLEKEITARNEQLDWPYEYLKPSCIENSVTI

[5] = biological target: T2, Polyunsaturated fatty acid 5-lipoxygenase (Homo sapiens); test: Inhibition of 5-LOX (unknown origin) using arachidonic acid as substrate at 10 uM
[6] = biological target: T4, Prostaglandin G/H synthase 2 (Homo sapiens) (UniProt P35354); test: Inhibition of COX2 (unknown origin) using arachidonic acid as substrate at 10 uM
T4 sequence (whole entry): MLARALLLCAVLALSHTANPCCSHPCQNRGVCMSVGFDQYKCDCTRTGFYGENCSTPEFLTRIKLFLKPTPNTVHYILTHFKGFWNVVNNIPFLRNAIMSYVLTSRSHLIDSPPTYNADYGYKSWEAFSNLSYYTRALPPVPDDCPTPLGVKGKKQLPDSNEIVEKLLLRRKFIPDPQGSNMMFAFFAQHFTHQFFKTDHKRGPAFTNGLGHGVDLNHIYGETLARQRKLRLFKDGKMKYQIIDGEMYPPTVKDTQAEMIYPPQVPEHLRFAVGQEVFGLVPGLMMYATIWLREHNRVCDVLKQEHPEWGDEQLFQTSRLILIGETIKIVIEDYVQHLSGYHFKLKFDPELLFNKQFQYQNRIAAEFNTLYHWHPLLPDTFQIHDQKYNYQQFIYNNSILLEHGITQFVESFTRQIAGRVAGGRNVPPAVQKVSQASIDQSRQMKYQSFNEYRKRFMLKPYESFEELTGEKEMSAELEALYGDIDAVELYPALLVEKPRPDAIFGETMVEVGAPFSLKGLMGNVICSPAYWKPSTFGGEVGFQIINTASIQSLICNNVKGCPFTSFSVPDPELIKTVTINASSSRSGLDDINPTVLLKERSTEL

[7] = biological target: Prostaglandin G/H synthase 1 (Homo sapiens) (UniProt P23219); test: Inhibition of COX1 (unknown origin) using arachidonic acid as substrate at 10 uM
Chain of Prostaglandin G/H synthase 1 (Homo sapiens) (P23219 whole entry): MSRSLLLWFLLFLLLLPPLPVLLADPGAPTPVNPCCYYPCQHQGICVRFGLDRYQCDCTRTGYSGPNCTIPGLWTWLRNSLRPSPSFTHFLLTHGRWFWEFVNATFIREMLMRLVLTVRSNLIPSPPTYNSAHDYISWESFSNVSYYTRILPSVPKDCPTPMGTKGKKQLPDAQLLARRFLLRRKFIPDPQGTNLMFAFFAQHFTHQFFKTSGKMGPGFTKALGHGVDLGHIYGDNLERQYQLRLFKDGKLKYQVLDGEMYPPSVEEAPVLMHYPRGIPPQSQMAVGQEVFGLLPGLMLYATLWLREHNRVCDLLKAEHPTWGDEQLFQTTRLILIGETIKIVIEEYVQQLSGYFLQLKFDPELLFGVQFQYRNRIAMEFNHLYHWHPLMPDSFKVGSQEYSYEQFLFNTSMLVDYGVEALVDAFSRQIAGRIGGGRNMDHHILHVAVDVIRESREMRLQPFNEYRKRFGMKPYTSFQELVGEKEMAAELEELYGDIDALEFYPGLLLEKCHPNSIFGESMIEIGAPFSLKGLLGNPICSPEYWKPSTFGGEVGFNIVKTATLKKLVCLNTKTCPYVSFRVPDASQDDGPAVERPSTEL

SMILES: Cn1cc(Cl)c(C(=O)Nc2ccc(F)cc2Cl)n1
IC50 [1]: Not Active

SMILES: O=C(Nc1ccccc1Cl)c1ccn(C(=O)c2cccc(Cl)c2)n1
inhibition [3]: 16% | inhibition [4]: 18% | inhibition [5]: 8% | inhibition [6]: inactive | inhibition [7]: 11%

SMILES: CCCCCCNC(=O)n1cc(CCCC)c(C(=O)Nc2ccc(F)cc2Cl)n1
IC50 [2]: Not Active | IC50 [1]: Not Active

SMILES: O=C(Nc1ccc(F)cc1Cl)c1ccn(C(=O)Cc2ccccc2)n1
IC50 [1]: Not Active

Second part, the compound after the results:

pIC50 ([2]; read-out: IC50): 5.71 | pIC50 ([1]; read-out: IC50): 5.97
SMILES: O=C(Nc1ccc(F)cc1Cl)c1ccn(S(=O)(=O)c2cccc(C(F)(F)F)c2)n1

IC50 [1]: Not Active
SMILES: CN(C)S(=O)(=O)n1ccc(C(=O)Nc2ccc(F)cc2Cl)n1
